Legend:
β-adrenergic [1] = test: β-adrenergic activity of the acid metabolite (statement)
[2] = Enzymatic hydrolytic cleavage in human plasma; type: in vitro ADME; settings: 37.0 ± 0.1° C.; for Observed first order hydrolytic rate constant k: ± SEM; for half-life at 1000 µM: human, plasma, read-out: Half-life t1/2
Procedure: (§1) Analytical Methods. A high pressure liquid chromatography (HPLC) method was developed for the determination of the rate constants. The chromatographic analysis was performed in a system consisting of Waters Associates Model 600-A Solvent Delivery System, Model U-6K Injector and Model 440 Dual Channel Absorbance Detector operated at 254 and 280 nm. A 30 cm×3.9 mm (internal diameter) reverse phase μBondpack C18 column (Waters Associates), operated at ambient temperature, was used for all separations. When plasma samples were analyzed, the column was protected with a 2.3 cm×3.9 mm (internal diameter) Guard Column (Waters) packed with μBondpack C18/Corasil packing material. The mobile phase used for the separation of 17 and its degradation product, 5, consisted of water, 1-hexane sulfonic acid in acetic acid (B-6 reagent, Waters), 0.1M triethanolamine and methanol (100:1:100:799). […] For the separation of compounds 10-16 and 18 and their degradation product 5, a mobile phase consisting of water, 1-hexane sulfonic acid in acetic acid (B-6 reagent, Waters), 0.1M triethanolamine and methanol (390:1:10:599) was used.
(§2) Determination of the Hydrolytic Rate Constants in Aqueous Solutions. A 0.01M phosphate buffer and 0.01N sodium hydroxide solution were prepared from freshly distilled deionized water. This ionic strength was maintained at 0.1M with sodium chloride. The pH of the phosphate buffer was determined at 37.0° C. with a pH meter standardized at this temperature. For determination of the hydrolytic rate constants, a fresh concentrated solution of the ester in methanol was added to the hydrolytic medium previously equilibrated to the desired temperature and mixed thoroughly to result in an initial concentration of about 5×10^-4 mol. liter^-1. All reactions were run under pseudo first order conditions. Samples of 25 μL were injected into the column at various time intervals and the pseudo first order rate constants were determined from disappearance of the compound by linear regression of natural logarithm of the peak height versus time plots. The half-life and standard error of the rate constant were calculated for each run.
Determination of the Enzymatic Hydrolytic Cleavage Rates in Human Plasma. The freshly collected plasma used was obtained from the Civitan Regional Blood Center, Inc. (Gainesville, Fla.) and contained about 80% plasma diluted with anticoagulant citrate phosphate dextrose solution, U.S.P. The plasma was stored in a refrigerator and used within one week from the date it was collected.
A portion of 50 μL of a freshly prepared solution of the compound in methanol was added to 10 mL plasma, previously equilibrated at 37.0° C. in a water bath, and mixed thoroughly to result in an initial concentration of 1×10^-3 mol. liter^-1. One mL samples of plasma were withdrawn from the test medium, mixed immediately with 4.0 mL ice cold 95% v/v ethanol, centrifuged and the supernatant analyzed by HPLC. The first order hydrolytic rate constant was determined as before in the aqueous solutions and the results are listed in TABLE II below.

[3] = Hydrolytic rate in 0.01 N aqueous sodium hydroxide, pH 12.0; type: physicochemical; settings: pH 12.0, ionic strength 0.10 M (NaCl), 27.3 ± 0.2° C.; for Observed pseudo first order hydrolytic rate constant k: 0.01 N NaOH, ± SEM; for half-life: 0.01 n naoh, pH 12, 0.01 N NaOH, read-out: Half-life t1/2
Procedure: as §1, §2

[4] = Hydrolysis in 0.01M phosphate buffer pH 7.4; type: physicochemical; settings: pH 7.4, 37° C.
Procedure: Analytical Methods. A high pressure liquid chromatography (HPLC) method was developed for the determination of the rate constants. The chromatographic analysis was performed in a system consisting of Waters Associates Model 600-A Solvent Delivery System, Model U-6K Injector and Model 440 Dual Channel Absorbance Detector operated at 254 and 280 nm. A 30 cm×3.9 mm (internal diameter) reverse phase μBondpack C18 column (Waters Associates), operated at ambient temperature, was used for all separations. When plasma samples were analyzed, the column was protected with a 2.3 cm×3.9 mm (internal diameter) Guard Column (Waters) packed with μBondpack C18/Corasil packing material. The mobile phase used for the separation of 17 and its degradation product, 5, consisted of water, 1-hexane sulfonic acid in acetic acid (B-6 reagent, Waters), 0.1M triethanolamine and methanol (100:1:100:799). […]
Determination of the Hydrolytic Rate Constants in Aqueous Solutions. […] The pH of the phosphate buffer was determined at 37.0° C. with a pH meter standardized at this temperature. […] Samples of 25 μL were injected into the column at various time intervals and the pseudo first order rate constants were determined from disappearance of the compound by linear regression of natural logarithm of the peak height versus time plots. The half-life and standard error of the rate constant were calculated for each run.

[5] = test system: heart rate response to isoproterenol (β-adrenergic); test: Heart rate response to isoproterenol in rats (initial drug screening); type: in vivo, male Spraque-Dawley rats; settings: 6 mg/kg i.p.; mean ± SEM
Source text: (§3) Initial Drug Screening Protocol. Thirty-two male Spraque-Dawley rats (Blue Spruce Farms) initially weighing 300-450 gm were divided into seven different groups, each for a different drug to be tested: 12(n=4), 14(n=4), 17(n=5), 13(n=4) and 18(n=3), corresponding to the designated compounds 12, 14, 17, 13 and 18 (number of animals), respectively. The other two groups were controls (n=8, isoproterenol alone pretreated with carrier) and those treated with a known β-blocker, dl-propranolol (n=3). Ech animal was anesthetized with sodium pentobarbital (45 mg/kg) and the carotid artery was cannulated with PE-50 tubing. The cannula was subcutaneously threaded around the neck and exteriorized dorsally between the shoulder blades. Th cannula was filled with a heparin solution (300 μg/mL) and sealed with a solid 22 gauge stylet. The animals were housed in individual stainless steel cages, and two days were allowed for recovery from the surgery. Food and water were provided ad libitum. On the day of the experiment, the blood pressure and heart rate of each rat were monitored with a pressure transducer (Narco-Bio model P-1000) and the data recorded on a four-channel physiograph (Narco-Bio systems Marck IV). One hour was allowed as an equilibration period before any drugs were administered. All beta blockers were administered intraperitoneally at a dose of 6 mg/kg. Compounds 12 and 14 and dl-proranolol were dissolved in normal saline while compounds 13, 17 and 18 were dissolved in an ethanol: water solution (3:1). Depending on the trial, controls were administered the appropriate carrier. One hour after administration of the blocker, isoproterenol (Isuprel®, Wintrop Laboratories) was administered subcutaneously at a dose of 25 μg/kg. Blood pressures and heart rate also were recorded 3, 5, 10, 15, 20, 30, 45 and 60 minutes after isoproterenol administration. Both control and experimental animals were unrestrained and free moving in their home cage throughout the experiment. […] However, significant differences in the mean heart rate response amoung the 7 groups were observed: *p<0.005;**p<0.025. Comparisons between groups were made by the Newman-Keuls procedure with significance set at the 95% confidence interval. […] All data are shown as mean±standard error of the mean.

[6] = test system: blood pressure response to isoproterenol; test: Blood pressure response to isoproterenol in rats; type: in vivo, male Spraque-Dawley rats; settings: 6 mg/kg i.p., isoproterenol 25 μg/kg s.c.; FIG. 3
Source text: as §3
Symbols are the same as those described for FIG. 1. […] Data are shown as mean±standard error of the mean.

β-adrenergic [7] = settings: major metabolite found in the urine; Borg et al; cited from earlier work

SMILES	activity of acid (β-adrenergic [1])	Observed first order hydrolytic rate constant k [2]	half-life at 1000 µM [2]	Observed pseudo first order hydrolytic rate constant k [3]	half-life [3]	half-life [4]	resting heart rate prior to administration of isoproterenol [5]	mean change in blood pressure vs propranolol and compound 12-treated groups [6]	activity as metabolite of metoprolol (β-adrenergic [7])
CC(C)NCC(O)COc1ccc(CC(=O)O)cc1 (centres unmarked) [Compound 5, 4-(2-Hydroxy-3-isopropylamino)propoxyphenylacetic acid]	inactive	–	–	–	–	–	–	–	–
CCCOC(=O)Cc1ccc(OCC(O)CNC(C)C)cc1 (centres unmarked) [Compound 11, n-Propyl 4-(2-hydroxy-3-isopropylamino)propoxyphenylacetate]	–	0.143 ± 0.005 min⁻¹	4.86 min	0.103 ± 0.001 min⁻¹	6.73 min	8.7 days	–	–	–
CC(C)NCC(O)COc1ccc(CC(=O)OCc2ccccc2)cc1 (centres unmarked) [Compound 14, Benzyl 4-(2-hydroxy-3-isopropylamino)propoxyphenylacetate]	–	0.236 ± 0.007 min⁻¹	2.93 min	0.208 ± 0.004 min⁻¹	3.33 min	13 days	405±22 beat/minute	significantly lower (p<0.15)	–
CC(C)NCC(O)COc1ccc(CC(=O)O)cc1 (centres unmarked) [drawing 10]	–	–	–	–	–	–	–	–	inactive metabolite

Source: patent publication US4829086A, “Soft β-adrenergic blocking agents” (priority 1985, dated 1989)
